Reference: patent US11085056B2, “Transfection complexes and methods of using the same” (MOLECULAR TRANSFER, INC., priority 2015, dated 2021)

Tests used:
[1] = test system: Human Fibroblast Cells; experiment: Transfection of human fibroblast cells with DOTMA/DOPE/peptide and eGFP plasmid, fluorescent plate reader; assay type: cell-based; details: DOTMA/DOPE 1:1 plus peptide with RRRRRRRRRRRR (SEQ ID NO: 109) at n terminus; EF1Alpha eGFP plasmid; 0.01 mL complex; 42 hours
How it was run: (§1)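 Cells at 60-70% confluence got DOTMA/DOPE (1:1) mixed with peptides bearing an N-terminal R12 DNA-binding tag, complexed 10 min with EF1α-eGFP plasmid (5 μg/mL in OptiMEM); 0.01 or 0.02 mL complex per well. After 42 h at 37 °C, GFP read by fluorescence plate reader and % transfected cells by microscopy, relative to lipid without peptide.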

[2] = test system: some examined cell types; experiment: Transfection expression and % cells transfected over the no peptide control; assay type: cell-based; details: on some examined cell types
Experimental: (§2) Cells were plated to so that on the day of transfection the cells were 60-70% confluent in 96 well tissue culture plates. A DOMTA/DOPE Lipid solution (1:1 molar ratio) at 2 mg/mL in water were mixed with an equal volume of surface ligand peptides that had the nucleic acid binding moiety RRRRRRRRRRRR (SEQ ID NO: 109) covalently linked to the n terminus of each peptide during peptide synthesis. Peptides were at 2 mg/mL in water. The DOTMA/DOPE and the surface ligand peptide solution the transfection reagent was diluted 1 to 1 (v/v) in water. DOMTA/DOPE/PEPTIDE solutions were added to 0.1 mL of a plasmid DNA solution (EF1Alpha eGFP plasmid) at 5 μg/mL in OptiMEM. Lipofectamine 2000 was obtained from Life Technologies.
(§3) All solutions were at room temperature. A volume of 0.2 mL of a 5 μg/mL solution of DNA was aliquoted into each well of a non-tissue cultured treated plate. 4.0 μL of transfection reagents were added to DNA solutions respectively. The transfection reagent and DNA solution was mixed by pipetting up and down twice. Transfection complexes were formed for 10 minutes. After 10 minutes, 0.01 or 0.02 mL of the transfection complex was added to cells. HuVEC, HeLa, human adult keratinocytes, human primary adult fibroblast, and rat cortical neurons all respectively received 0.01 mL of the tramsfectopm complex. Human skeletal muscle cells, mouse C2C12 cells, Jurkat, and THP-1 cells received 0.02 mL of the transfection complex. Cells were incubated for 42 hours at 37° C. at 5% CO2. Plates were read on a fluorescent plate reader. Cells were also examined visually under a microscope to assess the extent of transfection (in terms of the percent of cells transfected) with a fluorescent microscope. Other modes of analysis, for example quantification with B-galactosidase or luciferase reports plasmids can also be used. […] Surface ligand that caused increase expression of GFP over the lipid DOTMA with no surface ligand were considered to enhance transfection or had higher % cells transfected were considered to enhance transfection. Peptides that gave greater than 2 fold enhancement are noted in bold and could be further optimized by adding different transfection enhancers or could be used with different cationic lipids or polymers.

[3] = test system: HeLa Cells; experiment: Transfection of HeLa cells with DOTMA/SEQ ID NO: 72/peptide compared with Lipofectamine 2000; assay type: cell-based; details: fusogenic peptide 0.1 mg/mL
Experimental: as §2, §3
The fusogenic peptide was added to the DOMTA/peptide formulation to achieve a final concentration of 0.1 mg/mL to see if transfection reagents were further enhanced by the addition of a fusogenic peptide and could provide higher transfection efficiency into HeLa cells and expression than the commercially available Lipofectamine 2000.

[4] = test system: C2C12 Cells; experiment: Transfection of C2C12 cells with DOTMA/DOPE/peptide and eGFP plasmid, fluorescent plate reader; assay type: cell-based, mouse; details: DOTMA/DOPE 1:1 plus peptide with RRRRRRRRRRRR (SEQ ID NO: 109) at n terminus; EF1Alpha eGFP plasmid; 0.02 mL complex; 42 hours
How it was run: as §1

[5] = test system: HuVec Cells; experiment: Transfection of HuVec cells with DOTMA/DOPE/peptide and eGFP plasmid, fluorescent plate reader; assay type: cell-based; details: DOTMA/DOPE 1:1 plus peptide with RRRRRRRRRRRR (SEQ ID NO: 109) at n terminus; EF1Alpha eGFP plasmid; 0.01 mL complex; 42 hours
How it was run: as §1

[6] = test system: NL-1 iPS Cells; experiment: Transfection of NL-1 iPS cells with DOTMA/DOPE/peptide and eGFP plasmid, fluorescent plate reader; assay type: cell-based; details: DOTMA/DOPE 1:1 plus peptide with RRRRRRRRRRRR (SEQ ID NO: 109) at n terminus; EF1Alpha eGFP plasmid; 42 hours
[7] = test system: Jurkat Cells; experiment: Transfection of Jurkat cells with DOTMA/DOPE/peptide and eGFP plasmid, fluorescent plate reader; assay type: cell-based; details: DOTMA/DOPE 1:1 plus peptide with RRRRRRRRRRRR (SEQ ID NO: 109) at n terminus; EF1Alpha eGFP plasmid; 0.02 mL complex; 42 hours
How it was run: as §1

[8] = test system: HeLa Cells; experiment: Transfection of HeLa cells with DOTMA/DOPE/peptide and eGFP plasmid, fluorescent plate reader; assay type: cell-based; details: DOTMA/DOPE 1:1 plus peptide with RRRRRRRRRRRR (SEQ ID NO: 109) at n terminus; EF1Alpha eGFP plasmid; 0.01 mL complex; 42 hours
How it was run: as §1

[9] = 0.1 μL of DOTMA/SEQ ID NO: 72/Peptide in well of a 96 well plate
[10] = 0.2 μL of DOTMA/SEQ ID NO: 72/Peptide in well of a 96 well plate
[11] = 0.3 μL of DOTMA/SEQ ID NO: 72/Peptide in well of a 96 well plate
[12] = 0.4 μL of DOTMA/SEQ ID NO: 72/Peptide in well of a 96 well plate

Row | Substance | RF (Relative Fluorescence) of Transfection of Human Fibroblast Cells [1] | transfection expression and the % cells transfected over the no peptide control [2] | RF (Relative Fluorescence), DOTMA/SEQ ID NO: 72/Peptide, HeLa Cells [3, 9] | RF (Relative Fluorescence), DOTMA/SEQ ID NO: 72/Peptide, HeLa Cells [3, 10] | RF (Relative Fluorescence), DOTMA/SEQ ID NO: 72/Peptide, HeLa Cells [3, 11] | RF (Relative Fluorescence), DOTMA/SEQ ID NO: 72/Peptide, HeLa Cells [3, 12] | RF (Relative Fluorescence) of Transfection of C2C12 Cells [4] | RF (Relative Fluorescence) of Transfection of HuVec Cells [5] | RF (Relative Fluorescence) of Transfection of NL-1 iPS Cells [6] | RF (Relative Fluorescence) of Transfection of Jurkat Cells [7] | RF (Relative Fluorescence) of Transfection of HeLa Cells [8]
1 | 369 (TAIPSCPEGTVPLYS; Peptidic transfection agent) [compound 369] | 7590 | increased | 8737 | 16706 | 14880 | 12645 | 3322 | 6536 | 13124 | 11085 | 14444
2 | 503 (TAGSCLRKFSTMRRRRRRRRRRRR; Peptidic transfection agent) [compound 503] | 13085 | increased | 12827 | 20006 | 17101 | 16206 | 3973 | 12123 | 19014 | 9411 | 25368
3 | 343 (LFSHAVSSNG; Peptidic transfection agent) [compound 343] | 4590 | increased | 6961 | 8626 | 8577 | 8160 | 3218 | 16239 | 21726 | 23499 | 5910
4 | 375 (LAGSCLPVFSTL; Peptidic transfection agent) [compound 375] | 7305 | increased | 22457 | 30891 | 34887 | 29024 | 5633 | 5542 | 5196 | 4272 | 41076
5 | 348 (HQQDLGTAGSCLRKFSTM; Peptidic transfection agent) [compound 348] | 11802 | increased | 17413 | 18615 | 16164 | 15054 | 8625 | 21214 | 21645 | 15585 | 22289
6 | 355 (FRHRNRKGY; Peptidic transfection agent) [compound 355] | 6821 | increased | 18362 | 27990 | 22367 | 18289 | 1900 | 14810 | 7910 | 8132 | 32628
7 | 367 (TDIPPCPHGWISLWK; Peptidic transfection agent) [compound 367] | 10036 | increased | 10427 | 21411 | 23001 | 17529 | 16207 | 13354 | 17545 | 4365 | 39008
8 | 377 (TAGSCLRRFSTM; Peptidic transfection agent) [compound 377] | 6638 | increased | 39115 | 40072 | 32914 | 22457 | 1710 | 9326 | 5474 | 6785 | 15091
